Reference: patent US4428957A, “6-Isothiocyano-5-methoxy-2-tert.-butylbenzthiazole and a method of controlling ruminant liver flukes therewith” (Ciba-Geigy Corporation, priority 1978, dated 1984)
Read-outs that look alike come from different tables or passages of the source.

Tests used:
[1] = system: Fasciola hepatica; test: Test on sheep infested with Fasciola hepatica; assay type: in vivo, Fasciola hepatica (host: sheep); conditions: for minimal effective dose: Fasciola hepatica
Excerpt: The active substance is introduced in the form of a suspension, by means of a stomach probe or by injection, into the rumen of sheep which have been artificially infested with Fasciola hepatica. Three animals are used per test and per dose, each animal being treated with just one single dose. An initial evaluation is made by comparing the numbers of worm eggs excreted in the droppings of the sheep before and after the treatment. The sheep are killed and dissected three to four weeks after the treatment. The second evaluation is on the basis of a count of the liver flukes which have remained behind in the hepatic ducts after the treatment. Simultaneously and similarly infested but untreated sheep are used as a control or comparison. The difference in the numbers of liver flukes in the two groups is a measure of the degree of effectiveness of the active substance tested.
(§1) The active substances are introduced in the form of a suspension, by means of a stomach probe or by injection, into the rumen of the experimental animals. Three to five sheep are used per test and per dose, each animal being treated with just one single dose. The sheep are kept under observation during 14 days after the treatment, and they are weighed at regular intervals. Any clinical symptoms and cases of death occurring are recorded during this period. Similar sheep (with regard to breed, age and weight) which have not been treated with the respective active substance are kept as control animals together with the treated experimental animals. The same parameters are recorded in the case of the control sheep as in the case of the treated sheep. The minimum effective dose (MED) of 25 mg/kg (see Table) in the case of the compound of formula I is effective in sheep not only against Fasciola hepatica but also against nematodes such as Haemonchus concortus, Trichostrongylus colubriformis and Ostertagia circumcincta, and against cestodes such as Moniezia benedeni.

[2] = Compatibility in the case of the sheep; conditions: in vivo; for MTD at 336 h: single dose into the rumen, 14 days observation, read-out: MTD (maximum tolerated dose)
Experimental: as §1

[3] = system: Litomosoides carinii; test: filariasis: Litomosoides carinii in Mongolian jirds and multimammate rats; assay type: in vivo
[4] = system: Ostertagia circumcincta; test: Test on sheep infected with nematodes: Ostertagia circumcincta; assay type: in vivo, Ostertagia circumcincta (host: sheep); conditions: Teladorsagia circumcincta, read-out: minimum effective dose (MED), effective also against Ostertagia circumcincta
Excerpt: (§2) The active substance is introduced in the form of a suspension by means of a stomach probe, or by injection, into the rumen of sheep which have been artificially infested with nematodes such as Haemonchus controtus and Trichostrongylus colubriformis. Three animals are used per test and per dose, each sheep being treated with just one single dose. An initial evaluation is made by comparing the numbers of worm eggs excreted in the dropping of the sheep before and after the treatment. Seven to ten days after the treatment, the sheep are killed and dissected. A second evaluation is then made by carrying out a count of the worm which have remained behind in the intestine after the treatment. Sheep which have been simultaneously and similarly infested but not treated with the active substance are used as a control or comparison.

[5] = system: Trichostrongylus colubriformis; test: Test on sheep infected with nematodes: Trichostrongylus colubriformis; assay type: in vivo, Trichostrongylus colubriformis (host: sheep); conditions: read-out: minimum effective dose (MED), effective also against Trichostrongylus colubriformis
Excerpt: as §2

[6] = system: Schistosoma mansoni; test: schistosomiasis: Schistosoma mansoni in mice and Syrian hamsters; assay type: in vivo, Schistosoma mansoni (host: mice and Syrian hamsters)
[7] = system: Brugia malayi; test: filariasis: Brugia malayi in multimammate rats; assay type: in vivo, Brugia malayi (host: multimammate rats)
[8] = system: parasitic helminths, especially Nematodes and Trematodes; test: anthelmintic activity against parasitic helminths, various test models; assay type: in vivo
[9] = system: Dipetalonea viteae; test: filariasis: Dipetalonea viteae in Mongolian jirds and multimammate rats; assay type: in vivo
[10] = system: Moniezia benedeni; test: Test on sheep infested with cestodes: Moniezia benedeni; assay type: in vivo, Moniezia benedeni (host: sheep); conditions: read-out: minimum effective dose (MED), effective also against Moniezia benedeni
Excerpt: The active substance is introduced in the form of a suspension, by means of a stomach probe or by injection, into the rumen of sheep which are infested with cestodes such as Moniezia benedeni. Three animals are used per test and per dose, each sheep being treated with just one single dose. The sheep are killed and dissected seven to ten days after the treatment. The evaluation is made on the basis of a count of the worms which have remained behind in the intestine after the treatment. Sheep which have been simultaneously and similarly infested but not treated with the active substance are used as a control or comparison.

[11] = system: Brugia pahangi; test: filariasis: Brugia pahangi in multimammate rats; assay type: in vivo, Brugia pahangi (host: multimammate rats)
[12] = system: Haemonchus contortus; test: Test on sheep infected with nematodes: Haemonchus contortus; assay type: in vivo, Haemonchus contortus (host: sheep); conditions: read-out: minimum effective dose (MED), effective also against Haemonchus concortus
Excerpt: as §2

[13] = system: Nipprostrongylus species; test: gastro-intestinal helminths: tests with various Nipprostrongylus species; assay type: in vivo; conditions: compound and its non-toxic salts
[14] = system: Schistosoma japonicum; test: schistosomiasis: Schistosoma japonicum in dogs; assay type: in vivo, Schistosoma japonicum (host: dogs)
[15] = read-out: MED (minimum effective dose)

CC(C)(C)c1nc2ccc(N=C=S)cc2s1 [No. 2, reference compound]
minimal effective dose [1, 15]: 100 mg/kg | MTD at 336 h [2]: 200 mg/kg

COc1cc2nc(C(C)(C)C)sc2cc1N=C=S [compound of the formula I, 6-isothiocyano-5-methoxy-2-tert.-butyl-benzothiazole]
potency against filariasis, micro- and macrofilariae [3]: pronounced potency | minimal effective dose [4]: 25 mg/kg | minimal effective dose [5]: 25 mg/kg | antischistosomal effects [6]: pronounced antischistosomal effects | potency against filariasis, micro- and macrofilariae [7]: pronounced potency | anthelmintic properties ([8]; general): generally good anthelmintic properties | activity against filariasis, schistosomiasis and gastro-intestinal helminths ([8]; various test models): excellent activity | anthelminthic activities against a broad variety of parasitic helminths ([8]; warm-blooded organisms, compound and non-toxic salts): extremely potent anthelminthic activities | potency against filariasis, micro- and macrofilariae [9]: pronounced potency | minimal effective dose [10]: 25 mg/kg | minimal effective dose [1, 15]: 25 mg/kg | action against liver flukes in sheep ([1]; sheep): excellent action against liver flukes in sheep | minimal effective dose ([1]; sheep, read-out: minimum effective dose (MED)): 25 mg/kg | selectivity ratio ([2]; liver flukes, read-out: therapeutic index (maximum tolerated dose/minimum effective dose)): ~13 | MTD at 336 h [2]: 320 mg/kg | potency against filariasis, micro- and macrofilariae [11]: pronounced potency | minimal effective dose [12]: 25 mg/kg | properties against gastro-intestinal helminths [13]: surprising properties against gastro-intestinal helminths | antischistosomal effects [14]: pronounced antischistosomal effects

CC(C)c1nc2ccc(N=C=S)cc2s1 [No. 4, reference compound]
minimal effective dose [1, 15]: > 200 mg/kg | MTD at 336 h [2]: 200 mg/kg

COc1cc2nc(C(C)C)sc2cc1N=C=S [No. 3, reference compound]
minimal effective dose [1, 15]: > 100 mg/kg | MTD at 336 h [2]: 200 mg/kg
